From patent publication US20250034197A1, “NUCLEOSIDE-DIPHOSPHATE-HEPTOSE COMPOUNDS FOR TREATING CONDITIONS ASSOCIATED WITH ALPK1 ACTIVITY” (PYROTECH (BEIJING) BIOTECHNOLOGY CO., LTD., priority 2021, published 2025)

biological target: T1, ALPK1 (Homo sapiens, UniProt Q96QP1); assay: NF-κB luciferase reporter assay in 293T cells (cellular assay); format: cell-based
T1 construct: endogenous in cells; host or cells: 293T cells
Method: The compounds disclosed herein activate NF-κB through ALPK1-TIFA axis as determined by the NF-κB luciferase reporter and TIFA phosphorylation. For NF-κB luciferase assay, the plasmids (pNL2.2-BII-5RE-Luc), and control vector (pRL-TK) were transfected into 293T cells with the Jetprime reagents (Polyplus). NF-κB luciferase activity was determined using the dual luciferase assay kit (Promega) according to the manufacturer's instructions. TIFA phosphorylation upon the treatment with the compounds disclosed herein described in Table 1, were assayed with immunoblotting. Briefly, for the immunoblotting assay, the 293T cells were seeded in 12-well-plates and cultured for 16 h, and treated with indicated compounds for another 2 hours. Subsequently, the cells were collected and sampled as the regular western-blotting method, immunoblotted by the TIFA phosphorylation specific antibody (ab214815, Abcam).
The EC50 of the compounds disclosed herein were determined by the NF-κB luciferase reporter assay using 293T cells described supra. Compounds with indicated concentrations were added to the culture medium of 293T and the NF-κB luciferase activity was determined using the dual luciferase assay kit (Promega) according to the manufacturer's instructions. […] These chemical entities induce strong activation of the immune regulator NF-κB.

T1 sequence (Q96QP1 whole entry): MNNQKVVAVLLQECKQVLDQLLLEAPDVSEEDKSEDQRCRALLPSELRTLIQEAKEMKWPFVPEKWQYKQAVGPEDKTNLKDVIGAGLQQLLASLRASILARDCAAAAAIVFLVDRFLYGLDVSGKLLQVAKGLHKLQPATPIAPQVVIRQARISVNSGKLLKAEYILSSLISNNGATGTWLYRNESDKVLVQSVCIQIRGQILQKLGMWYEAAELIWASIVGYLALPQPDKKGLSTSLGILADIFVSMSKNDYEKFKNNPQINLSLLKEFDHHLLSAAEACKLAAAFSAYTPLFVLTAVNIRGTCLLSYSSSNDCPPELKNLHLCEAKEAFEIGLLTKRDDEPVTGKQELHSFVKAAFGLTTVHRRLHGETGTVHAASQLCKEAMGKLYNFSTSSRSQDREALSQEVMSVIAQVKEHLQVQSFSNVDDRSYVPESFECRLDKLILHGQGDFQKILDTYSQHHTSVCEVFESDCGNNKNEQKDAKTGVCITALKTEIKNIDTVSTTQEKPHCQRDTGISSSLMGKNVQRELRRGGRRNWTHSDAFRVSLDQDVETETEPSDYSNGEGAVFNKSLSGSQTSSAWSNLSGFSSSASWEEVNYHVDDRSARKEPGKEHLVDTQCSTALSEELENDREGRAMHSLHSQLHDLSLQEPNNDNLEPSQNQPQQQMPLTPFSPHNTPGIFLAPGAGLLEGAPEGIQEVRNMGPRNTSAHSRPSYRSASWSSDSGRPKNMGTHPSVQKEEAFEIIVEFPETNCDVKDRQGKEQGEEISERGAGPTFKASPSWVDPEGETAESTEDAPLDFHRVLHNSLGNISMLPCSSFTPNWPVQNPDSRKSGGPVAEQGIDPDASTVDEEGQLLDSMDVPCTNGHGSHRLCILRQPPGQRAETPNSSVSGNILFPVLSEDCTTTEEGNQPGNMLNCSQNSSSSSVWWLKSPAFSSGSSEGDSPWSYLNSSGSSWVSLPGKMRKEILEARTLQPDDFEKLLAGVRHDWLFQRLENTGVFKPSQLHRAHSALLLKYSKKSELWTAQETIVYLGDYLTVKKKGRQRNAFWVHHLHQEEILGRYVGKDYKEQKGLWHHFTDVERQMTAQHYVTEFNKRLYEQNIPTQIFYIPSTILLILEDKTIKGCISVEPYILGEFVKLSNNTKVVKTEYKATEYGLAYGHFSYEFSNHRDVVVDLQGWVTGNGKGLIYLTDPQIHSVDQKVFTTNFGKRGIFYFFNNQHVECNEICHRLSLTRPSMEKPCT

SMILES	EC50
CN[C@@H]1[C@H](O)[C@@H](COP(=O)(S)OP(=O)(O)OC2OC([C@H](COC(C)=O)OC(C)=O)C(OC(C)=O)C(OC(C)=O)C2OC(C)=O)O[C@H]1n1cnc2c(N)ncnc21 (stereo partly drawn) [Example 34C]	345 nM
C=C[C@@]1(O)[C@H](O)[C@@H](COP(=O)(OP(=O)(O)OC2OC([C@H](COC(C)=O)OC(C)=O)C(OC(C)=O)C(OC(C)=O)C2OC(C)=O)SCOC(=O)C(C)C)O[C@H]1n1cnc2c(N)ncnc21 (stereo partly drawn) [Example 31K]	57.6 nM
CC(=O)OC[C@H](OC(C)=O)C1OC(OP(=O)(O)OP(=O)(S)OC[C@H]2O[C@@H](n3ccc(=O)[nH]c3=O)[C@H](N(C)C)[C@@H]2O)C(OC(C)=O)C(OC(C)=O)C1OC(C)=O (stereo partly drawn) [Example 40C]	431 nM
C=C[C@@]1(O)[C@H](O)[C@@H](CO[P@@](=O)(S)OP(=O)(O)OC2OC([C@H](COC(C)=O)OC(C)=O)C(OC(C)=O)C(OC(C)=O)C2OC(C)=O)O[C@H]1n1cnc2c(N)ncnc21 (single isomer, unassigned) [Example 31P]	7.23 nM
C=C[C@@]1(O)[C@H](O)[C@@H](COP(=O)(S)OP(=O)(O)OC2OC([C@H](COC(C)=O)OC(C)=O)C(OC(C)=O)C(OC(C)=O)C2OC(C)=O)O[C@H]1c1csc(C(N)=O)c1N (stereo partly drawn) [Example 126C]	231 nM
C=C[C@@]1(O)[C@H](O)[C@@H](COP(=O)(S)OP(=O)(O)OC2OC([C@H](COC(C)=O)OC(C)=O)C(OC(C)=O)C(OC(C)=O)C2OC(C)=O)O[C@H]1c1cnn2c(N)ncnc12 (stereo partly drawn) [Example 128C]	3.62 nM
C=C=C[C@@]1(O)[C@H](O)[C@@H](COP(=O)(S)OP(=O)(O)OC2OC([C@H](COC(C)=O)OC(C)=O)C(OC(C)=O)C(OC(C)=O)C2OC(C)=O)O[C@H]1n1cnc2c(N)ncnc21 (stereo partly drawn) [Example 97C]	1060 nM
C=C[C@@]1(O)[C@H](O)[C@@H](CO[P@](=O)(S)OP(=O)(O)OC2OC([C@H](COC(C)=O)OC(C)=O)C(OC(C)=O)C(OC(C)=O)C2OC(C)=O)O[C@H]1n1cnc2c(N)ncnc21 (single isomer, unassigned) [Example 31O]	21 nM
C=C[C@@]1(O)[C@H](O)[C@@H](COP(=O)(S)OP(=O)(O)OC2OC([C@H](COC(C)=O)OC(C)=O)C(OC(C)=O)C(OC(C)=O)C2OC(C)=O)O[C@H]1c1csc2c(N)ncnc12 (stereo partly drawn) [Example 265C]	45.4 nM
C#C[C@@]1(O)[C@H](O)[C@@H](COP(=O)(S)OP(=O)(O)OC2OC([C@H](COC(C)=O)OC(C)=O)C(OC(C)=O)C(OC(C)=O)C2OC(C)=O)O[C@H]1c1csc2c(N)ncnc12 (stereo partly drawn) [Example 264C]	48.3 nM
C=C[C@@]1(OC)[C@H](O)[C@@H](COP(=O)(S)OP(=O)(O)OC2OC([C@H](COC(C)=O)OC(C)=O)C(OC(C)=O)C(OC(C)=O)C2OC(C)=O)O[C@H]1n1ccc(=O)[nH]c1=O (stereo partly drawn) [Example 45C]	9.58 nM
CC(=O)OC[C@H](OC(C)=O)C1OC(OP(=O)(O)OP(=O)(S)OC[C@H]2O[C@@H](n3ccc(=O)[nH]c3=O)[C@](C)(N)[C@@H]2O)C(OC(C)=O)C(OC(C)=O)C1OC(C)=O (stereo partly drawn) [Example 112C]	360 nM
CS[C@@H]1[C@H](O)[C@@H](COP(=O)(S)OP(=O)(O)OC2OC([C@@H](O)CO)C(O)C(O)C2O)O[C@H]1n1ccc(=O)[nH]c1=O (stereo partly drawn) [Example 262D]	101 nM
C#C[C@@]1(OC)[C@H](O)[C@@H](COP(=O)(S)OP(=O)(O)OC2OC([C@H](COC(C)=O)OC(C)=O)C(OC(C)=O)C(OC(C)=O)C2OC(C)=O)O[C@H]1n1ccc(=O)[nH]c1=O (stereo partly drawn) [Example 95C]	34.8 nM
C=C[C@@]1(O)[C@H](O)[C@@H](COP(=O)(S)OP(=O)(O)OC2OC([C@H](COC(=O)C(C)C)OC(=O)C(C)C)C(OC(C)=O)C(OC(C)=O)C2OC(C)=O)O[C@H]1n1cnc2c(N)ncnc21 (stereo partly drawn) [Example 31M]	2.99 nM
C#C[C@@]1(N=[N+]=[N-])[C@H](O)[C@@H](COP(=O)(S)OP(=O)(O)OC2OC([C@H](COC(C)=O)OC(C)=O)C(OC(C)=O)C(OC(C)=O)C2OC(C)=O)O[C@H]1n1ccc(=O)[nH]c1=O (stereo partly drawn) [Example 110C]	> 3000 nM
CN(C)[C@@H]1[C@H](O)[C@@H](COP(=O)(S)OP(=O)(O)OC2OC([C@@H](O)CO)C(O)C(O)C2O)O[C@H]1n1ccc(=O)[nH]c1=O (stereo partly drawn) [Example 40D]	713 nM
CC(=O)N[C@@H]1[C@H](O)[C@@H](COP(=O)(S)OP(=O)(O)OC2OC([C@H](COC(C)=O)OC(C)=O)C(OC(C)=O)C(OC(C)=O)C2OC(C)=O)O[C@H]1n1cnc2c(N)ncnc21 (stereo partly drawn) [Example 33E]	434 nM
C#C[C@@]1(O)[C@H](O)[C@@H](COP(=O)(S)OP(=O)(O)OC2OC([C@H](COC(C)=O)OC(C)=O)C(OC(C)=O)C(OC(C)=O)C2OC(C)=O)O[C@H]1n1ccc(=O)[nH]c1=O (stereo partly drawn) [Example 26C]	45.5 nM
C#C[C@@]1(F)[C@H](O)[C@@H](COP(=O)(S)OP(=O)(O)OC2OC([C@H](COC(C)=O)OC(C)=O)C(OC(C)=O)C(OC(C)=O)C2OC(C)=O)O[C@H]1n1cnc2c(N)ncnc21 (stereo partly drawn) [Example 21C]	15.2 nM

SMILES	EC50
CC(=O)OC[C@H](OC(C)=O)C1OC(OP(=O)(O)OP(=O)(S)OC[C@H]2O[C@@H](n3cnc4c(N)ncnc43)[C@H](N)[C@@H]2O)C(OC(C)=O)C(OC(C)=O)C1OC(C)=O (stereo partly drawn) [Example 33C]	40.2 nM
CC(=O)OC[C@H](OC(C)=O)C1OC(OP(=O)(O)OP(=O)(S)OC[C@H]2O[C@@H](n3cnc4c(N)ncnc43)[C@H](N3CCCC3)[C@@H]2O)C(OC(C)=O)C(OC(C)=O)C1OC(C)=O (stereo partly drawn) [Example 37C]	> 3000 nM
CN[C@@H]1[C@H](O)[C@@H](COP(=O)(S)OP(=O)(O)OC2OC([C@@H](O)CO)C(O)C(O)C2O)O[C@H]1n1cnc2c(N)ncnc21 (stereo partly drawn) [Example 34D]	167 nM
C#C[C@@]1(F)[C@H](O)[C@@H](COP(=O)(S)OP(=O)(O)OC2OC([C@H](COC(C)=O)OC(C)=O)C(OC(C)=O)C(OC(C)=O)C2OC(C)=O)O[C@H]1n1ccc(=O)[nH]c1=O (stereo partly drawn) [Example 22C]	49.1 nM
CN(C)[C@@H]1[C@H](O)[C@@H](CO[P@](=O)(S)OP(=O)(O)OC2OC([C@@H](O)CO)C(O)C(O)C2O)O[C@H]1n1cnc2c(N)ncnc21 (single isomer, unassigned) [Example 35I]	10.9 nM
C=C=C[C@@]1(O)[C@H](O)[C@@H](COP(=O)(S)OP(=O)(O)OC2OC([C@@H](O)CO)C(O)C(O)C2O)O[C@H]1n1cnc2c(N)ncnc21 (single isomer, unassigned) [Example 97D]	> 1000 nM
C#C[C@@]1(O)[C@H](O)[C@@H](COP(=O)(S)OP(=O)(O)OC2OC([C@@H](F)COC(C)=O)C(OC(C)=O)C(OC(C)=O)C2OC(C)=O)O[C@H]1n1cnc2c(N)ncnc21 (stereo partly drawn) [Example 25A]	244 nM
C#C[C@]1(O)[C@H](O)[C@@H](COP(=O)(S)OP(=O)(O)OC2OC([C@H](COC(C)=O)OC(C)=O)C(OC(C)=O)C(OC(C)=O)C2OC(C)=O)O[C@H]1n1ccc(=O)[nH]c1=O (stereo partly drawn) [Example 26E]	> 3000 nM
CO[C@@H]1[C@H](O)[C@@H](COP(=O)(S)OP(=O)(O)OC2OC([C@H](COC(C)=O)OC(C)=O)C(OC(C)=O)C(OC(C)=O)C2OC(C)=O)O[C@H]1c1cnc2c(N)ncnn12 (stereo partly drawn) [Example 322C]	6.76 nM
CN(C)[C@@H]1[C@H](O)[C@@H](CO[P@@](=O)(S)OP(=O)(O)OC2OC([C@@H](O)CO)C(O)C(O)C2O)O[C@H]1n1cnc2c(N)ncnc21 (single isomer, unassigned) [Example 35J]	10.3 nM
CS[C@@H]1[C@H](O)[C@@H](COP(=O)(S)OP(=O)(O)OC2OC([C@H](COC(C)=O)OC(C)=O)C(OC(C)=O)C(OC(C)=O)C2OC(C)=O)O[C@H]1n1ccc(=O)[nH]c1=O (stereo partly drawn) [Example 262C]	36.3 nM
CC(=O)OC[C@H](OC(C)=O)C1OC(OP(=O)(O)O[P@@](=O)(S)OC[C@H]2O[C@@H](n3cnc4c(N)ncnc43)[C@H](N(C)C)[C@@H]2O)C(OC(C)=O)C(OC(C)=O)C1OC(C)=O (single isomer, unassigned) [Example 35G]	16.9 nM
CC(=O)OC[C@H](OC(C)=O)C1OC(OP(=O)(O)O[P@](=O)(S)OC[C@H]2O[C@@H](n3cnc4c(N)ncnc43)[C@H](N(C)C)[C@@H]2O)C(OC(C)=O)C(OC(C)=O)C1OC(C)=O (single isomer, unassigned) [Example 35H]	16.7 nM
Nc1ncnc2c1ncn2[C@@H]1O[C@H](COP(=O)(S)OP(=O)(O)OC2OC([C@@H](O)CO)C(O)C(O)C2O)[C@@H](O)[C@H]1N1CCCC1 (stereo partly drawn) [Example 37D]	> 3000 nM
C=C[C@@]1(O)[C@H](O)[C@@H](COP(=O)(S)OP(=O)(O)OC2OC([C@@H](OC(C)=O)C(COC(C)=O)OC(C)=O)C(OC(C)=O)C(OC(C)=O)C2OC(C)=O)O[C@H]1n1cnc2c(N)ncnc21 (stereo partly drawn) [Example 321C]	> 1000 nM
C=C[C@@]1(O)[C@H](O)[C@@H](COP(=O)(OP(=O)(O)OC2OC([C@H](COC(C)=O)OC(C)=O)C(OC(C)=O)C(OC(C)=O)C2OC(C)=O)SCOC(=O)OC(C)C)O[C@H]1n1cnc2c(N)ncnc21 (stereo partly drawn) [Example 31L]	13.8 nM
C=C[C@@]1(N=[N+]=[N-])[C@H](O)[C@@H](COP(=O)(S)OP(=O)(O)OC2OC([C@H](COC(C)=O)OC(C)=O)C(OC(C)=O)C(OC(C)=O)C2OC(C)=O)O[C@H]1n1ccc(=O)[nH]c1=O (stereo partly drawn) [Example 108C]	> 3000 nM
C=C[C@@]1(O)[C@H](O)[C@@H](COP(=O)(S)OP(=O)(O)OC2OC([C@H](COC(=O)CC)OC(C)=O)C(OC(C)=O)C(OC(C)=O)C2OC(C)=O)O[C@H]1n1cnc2c(N)ncnc21 (stereo partly drawn) [Example 31H]	0.15 nM
C=C[C@@]1(OC)[C@H](O)[C@@H](COP(=O)(S)OP(=O)(O)OC2OC([C@H](COC(C)=O)OC(C)=O)C(OC(C)=O)C(OC(C)=O)C2OC(C)=O)O[C@@H]1n1ccc(=O)[nH]c1=O (stereo in doubt) [Example 45E]	7.77 nM
